Measurements taken from publication PMC11587536 (Biochemistry, 2024).

Target: MoLOX (Pyricularia oryzae, UniProt G4NAP4)
Sequence (G4NAP4 17-619 limits assumed): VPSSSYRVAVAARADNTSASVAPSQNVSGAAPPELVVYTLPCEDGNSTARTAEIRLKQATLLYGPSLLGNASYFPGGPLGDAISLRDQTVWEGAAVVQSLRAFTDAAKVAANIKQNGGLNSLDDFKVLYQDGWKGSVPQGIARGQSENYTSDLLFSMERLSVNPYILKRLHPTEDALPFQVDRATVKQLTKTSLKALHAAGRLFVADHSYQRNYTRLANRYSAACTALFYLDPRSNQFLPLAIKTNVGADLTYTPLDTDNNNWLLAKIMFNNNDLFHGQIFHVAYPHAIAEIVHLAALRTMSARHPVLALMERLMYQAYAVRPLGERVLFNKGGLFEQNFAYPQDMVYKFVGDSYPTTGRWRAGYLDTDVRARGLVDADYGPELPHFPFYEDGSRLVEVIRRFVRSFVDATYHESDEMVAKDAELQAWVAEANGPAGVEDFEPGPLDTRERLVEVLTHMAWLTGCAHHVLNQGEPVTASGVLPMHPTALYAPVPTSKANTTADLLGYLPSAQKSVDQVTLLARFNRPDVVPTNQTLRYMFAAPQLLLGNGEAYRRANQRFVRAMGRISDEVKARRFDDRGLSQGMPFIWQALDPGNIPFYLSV

Compound: CC/C=C\C/C=C\C/C=C\CCCCCCCC(=O)O [αLA, alpha linolenic]
- O2 electrode, steady-state kinetics: WT MoLOX reacts nearly twice as fast with αLA as with LA
